Measurements from patent publication US20260216239A1 (Arizona Board of Regents on Behalf of the University of …, priority 2020, published 2026).
Entries after “also recorded” stand apart in the source; their conditions may differ.

Tested on: Pseudonaja textilis venom
Experiment: Thrombelastography in human plasma of venom procoagulant activity after isolated exposure of venom to compounds
Assay type: biochemical
Details: for maximum rate of thrombus generation (MRTG) / total thrombus generation (TTG), clot strength: 100 μM CORM-3, 100 μM RuCl3 or both; for maximum rate of thrombus generation (MRTG) / total thrombus generation (TTG), clot strength / time to maximum rate of thrombus generation (TMRTG): venom 0.1 μg/ml in plasma; for time to maximum rate of thrombus generation (TMRTG): venom exposed 5 min in PBS to 100 μM CORM-3, 100 μM RuCl3 or both
Protocol: […] A sample of each of these venom mixtures was then placed into human plasma (0.1 μg/ml final concentration of venom), with coagulation determined by thrombelastography until final clot strength stabilized.
All venom solutions without or with chemical additions in isolation were added as a 1% addition to the plasma mix used in our thrombelastographic system (see, Nielsen, V. G.; et al., Biometals 2016, 29, 913-919; Nielsen, V. G.; Losada, P. A. Basic Clin. Pharmacol. Toxicol. 2017, 120, 207-212; Nielsen, V. G.; Frank, N. J. Thromb. Thrombolysis 2019, 47, 533-539; Nielsen, V. G.; Bazzell, C. M. J. Thromb. Thrombolysis 2017, 43, 203-208; Nielsen, V. G.; Matika, R. W. Hum. Exp. Toxicol. 2017, 36, 727-733; Nielsen, V. G.; et al., Toxins 2018, 10, 322; Nielsen, V. G.; et al., Biometals 2018, 31, 51-59; Nielsen, V. G.; Frank, N. et al., Biometals 2018, 31, 951-959; Nielsen, V. G.; et al., Toxins 2019, 11, 94; Nielsen, V. G.; Frank, N. Hum Exp. Toxicol. 2019, 38, 216-226; Nielsen, V. G. J. Thromb. Thrombolysis 2019, 48, 256-262; Nielsen, V. G.; et al., Blood Coagul. Fibrinolysis 2019, 30, 379-384; Nielsen, V. G. J. Thromb. Thrombolysis 2019, 47, 73-79; Gessner, G.; et al., Eur. J. Pharmacol. 2017, 815, 33-41). […] The thrombelastographic model describes coagulation kinetics with the following three variables: time to maximum thrombus generation (TMRTG, minutes—a measure of time to onset of coagulation), maximum rate of thrombus generation (MRTG, dynes/cm^2/s—a measure of the velocity of clot growth) and total thrombus generation (TTG, dynes/cm^2—a measure of clot strength).
The volumes of subsequently described plasmatic and other additives summed to a final volume of 360 μL. Samples were composed of 320 μL of plasma; 16.4 μL of PBS, 20 μL of 200 mM CaCl2), and 3.6 μL of PBS, RuCl3, or venom solution mixture, which were pipetted into a disposable cup in a Thrombelastograph® hemostasis system (Model 5000, Haemonetics Inc., Braintree, MA, USA) at 37° C., and then rapidly mixed by moving the cup up against and then away from the plastic pin five times. The PBS, RuCl3, or venom solution mixtures was always the last constituent added prior to mixing and data collection. The following viscoelastic parameters described previously (see, Nielsen, V. G.; et al., Biometals 2016, 29, 913-919; Nielsen, V. G.; Losada, P. A. Basic Clin. Pharmacol. Toxicol. 2017, 120, 207-212; Nielsen, V. G.; Frank, N. J. Thromb. Thrombolysis 2019, 47, 533-539; Nielsen, V. G.; Bazzell, C. M. J. Thromb. Thrombolysis 2017, 43, 203-208; Nielsen, V. G.; Matika, R. W. Hum. Exp. Toxicol. 2017, 36, 727-733; Nielsen, V. G.; et al., Toxins 2018, 10, 322; Nielsen, V. G.; et al., Biometals 2018, 31, 51-59; Nielsen, V. G.; Frank, N. et al., Biometals 2018, 31, 951-959; Nielsen, V. G.; et al., Toxins 2019, 11, 94; Nielsen, V. G.; Frank, N. Hum Exp. Toxicol. 2019, 38, 216-226; Nielsen, V. G. J. Thromb. Thrombolysis 2019, 48, 256-262; Nielsen, V. G.; et al., Blood Coagul. Fibrinolysis 2019, 30, 379-384; Nielsen, V. G. J. Thromb.

Row | Compound | procoagulant activity of venom (venom exposed 5 min to 100 μM CORM-2 in 5% human albumin, venom 100 ng/mL in plasma) | procoagulant activity of venom (venom exposed 5 min to 100 μM CORM-2 in PBS, venom 100 ng/mL in plasma) | maximum rate of thrombus generation (MRTG) | total thrombus generation (TTG), clot strength | time to maximum rate of thrombus generation (TMRTG) | procoagulant activity of venom (venom exposed 5 min to 100 μM RuCl3 in PBS, venom 100 ng/mL in plasma (Example III))
1 | [C-]#[O+].[C-]#[O+].[C-]#[O+].[C-]#[O+].[C-]#[O+].[C-]#[O+].[Cl][Ru][Cl].[Cl][Ru][Cl] [CORM-2, tricarbonyldichlororuthenium(II) dimer] | uninhibited | significantly attenuated |  |  |  | 
2 | [Cl][Ru]([Cl])[Cl] [RuCl3, ruthenium(III) chloride] |  |  | significantly decreased; also recorded: decrease | enhanced; also recorded: increase | significantly increased; also recorded: significant increase | significant loss of procoagulant activity
3 | Tricarbonylchloro(glycinato)ruthenium [CORM-3] |  |  | significantly decreased; also recorded: decrease | enhanced; also recorded: increase | significantly increased; also recorded: significant increase | 
